Patent US12637457B2, “Salt form and crystal form of JAK inhibitor, preparation method therefor, and use thereof” (SHANGHAI FUDAN-ZHANGJIANG BIO-PHARMACEUTICAL CO., LTD., priority 2020, dated 2026)
Like-named read-outs stand apart in the source and are kept apart here.

What was measured:
[1] = target: T1, JAK1 (Homo sapiens, UniProt P23458); assay: HTRF in vitro enzyme activity biochemical assay, JAK1; conditions: 1 mM ATP, 500 ng/mL JAK1
T1 construct: purchased Invitrogen PV4774
Protocol: (§1) Then, the concentration of the compound diluent was further diluted to 2.5-fold of the final test concentration with the kinase reaction buffer to obtain a compound solution to be tested.
(§2) The enzymatic reaction was initiated by adding a mixture of 2 μL of substrate and 2 μL of ATP prepared in kinase reaction buffer. […] The percentage of inhibition was calculated according to the formula: percentage of inhibition=100%−ratio value of a treated compound/ratio value of a treated DMSO carrier (DMSO carrier was a blank control group without drugs).
(§3) A dose-response curve was generated, and IC50 was calculated by non-linear S-shaped curve fitting using GraphPad Prism software.

[2] = target: T2, JAK2 (Homo sapiens, UniProt O60674); assay: HTRF in vitro enzyme activity biochemical assay, JAK2; conditions: 1 mM ATP, 6 ng/mL JAK2
T2 construct: purchased Carna Biosciences, Inc. 08-045
T2 sequence (O60674 826-1132 limits assumed): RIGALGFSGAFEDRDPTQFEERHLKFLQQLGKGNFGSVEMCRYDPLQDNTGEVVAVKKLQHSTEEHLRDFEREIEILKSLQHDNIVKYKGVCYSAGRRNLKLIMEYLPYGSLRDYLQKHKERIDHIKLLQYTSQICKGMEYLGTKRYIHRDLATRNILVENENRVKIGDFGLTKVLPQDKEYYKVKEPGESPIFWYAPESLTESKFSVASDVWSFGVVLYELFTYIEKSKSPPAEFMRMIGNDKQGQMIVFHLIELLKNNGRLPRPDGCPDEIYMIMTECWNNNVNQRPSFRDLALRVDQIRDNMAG
Protocol: as §1, §2, §3

[3] = Comparison of thermodynamic stability of crystal forms in saturated ethanol/water solution; format: physicochemical; conditions: ethanol/water 9:1 saturated solution, 50° C., stirred 24 hours
Protocol: Crystal form A, crystal form E and crystal form F were respectively dissolved in a mixed solvent of ethanol/water (volume ratio=9:1) to prepare a saturated solution. The saturated solution was heated to 50° C., and 10 mg of crystal form A, crystal form E and crystal form F were respectively added with stirring. The mixture was kept at 50° C., stirred for 24 hours, then filtered, and the XRPD of the resulting crystals was respectively determined (XRPD patterns of crystals precipitated by adding crystal forms A, E and F are shown in FIGS. 10, 11 and 12, respectively).

[4] = target: T3, JAK3 (Homo sapiens, UniProt P52333); assay: HTRF in vitro enzyme activity biochemical assay, JAK3; conditions: 1 mM ATP, 37 ng/mL JAK3
T3 construct: purchased Carna Biosciences, Inc. 08-046
T3 sequence (P52333 795-1124 limits assumed): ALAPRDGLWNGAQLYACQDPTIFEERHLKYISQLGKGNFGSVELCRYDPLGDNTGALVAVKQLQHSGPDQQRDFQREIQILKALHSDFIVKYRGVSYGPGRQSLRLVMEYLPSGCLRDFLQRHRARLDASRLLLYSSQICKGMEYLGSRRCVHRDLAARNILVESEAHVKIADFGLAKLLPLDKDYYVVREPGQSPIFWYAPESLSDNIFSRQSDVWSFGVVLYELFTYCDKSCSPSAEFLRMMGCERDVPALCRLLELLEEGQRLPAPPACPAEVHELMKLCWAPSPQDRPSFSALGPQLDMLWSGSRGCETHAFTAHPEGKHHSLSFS
Protocol: as §1, §2, §3

[5] = Hygroscopicity study; format: physicochemical; conditions: 25° C./75%-RH for 5 days
[6] = Solubility test in common solvents (visual dissolution); format: physicochemical; conditions: 25° C.±5° C., observed within 30 minutes
Protocol: The sample that has been ground into fine powder was weighed and added to a certain volume of solvent (ambient temperature: 25° C.±5° C.), shaken strongly for 30 seconds every 5 minutes, and the dissolution was observed within 30 minutes. If there were no visually visible solute particles or droplets, the sample was regarded as completely dissolved. According to this method, the dissolution of crystal form A of the hydrochloride hydrate of the compound shown in formula I and the free base form of the compound shown in formula I in common solvents was observed, and the results are shown in Table 3.

[7] = target: T4, TYK2 (Homo sapiens, UniProt P29597); assay: HTRF in vitro enzyme activity biochemical assay, TYK2; conditions: 1 mM ATP, 100 ng/mL TYK2
T4 construct: purchased Carna Biosciences, Inc. 08-147
T4 sequence (P29597 871-1187 limits assumed): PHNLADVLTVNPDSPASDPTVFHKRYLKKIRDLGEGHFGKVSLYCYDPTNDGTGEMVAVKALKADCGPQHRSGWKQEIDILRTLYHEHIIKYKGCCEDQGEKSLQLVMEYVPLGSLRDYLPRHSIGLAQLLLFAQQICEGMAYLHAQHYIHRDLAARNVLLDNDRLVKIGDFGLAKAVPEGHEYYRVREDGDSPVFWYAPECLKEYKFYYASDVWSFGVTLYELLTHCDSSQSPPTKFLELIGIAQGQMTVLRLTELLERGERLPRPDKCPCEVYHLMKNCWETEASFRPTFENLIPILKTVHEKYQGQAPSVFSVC
Protocol: as §1, §2, §3

[8] = Stability test in stable chamber (temperature and humidity); format: physicochemical; conditions: for Content of compound shown in formula I: HPLC
Protocol: Whether the temperature and humidity have an impact on the stability of the crystal form A of the hydrochloride hydrate of the compound shown in formula I was tested: […]

[9] = Single dose PK study; format: in vivo; conditions: female SD rats, single oral dose 3 mg/kg, 0.5% CMC-Na suspension, plasma
Protocol: Two groups of SD rats (3 females in each group) were given a single oral dose of 3 mg/kg free base of the compound shown in formula I and a single oral dose of 3 mg/kg crystal form A of hydrochloride hydrate of the compound shown in formula I, respectively. The drug was administered as a 0.5% CMC-Na suspension. Samples were taken at different times until 24 hours, and the drug concentration of the compound shown in formula I in plasma was analyzed by LC-MS/MS method, and the final calculation results are shown in Table 8.
Chromatographic Conditions of LC-MS/MS Method for Compound Shown in Formula I:
• instrument model, SHIMADZU LC-30AD liquid phase system; chromatographic column, ACQUITY UPLC® BEH C18 (2.1×50 mm, 1.7 μm); column temperature, 40° C.; injection volume, 1 μL; flow rate of 0.6 mL/min; run time of 6 min; • the mobile phase gradient settings are shown in Table 5.
Instrument model, AB SCIEX TRIPLE QUAD 6500 mass spectrometer; ion source, electrospray (ESI); ionization mode, positive ion scanning; multi-ion (MRM) ion pairs are shown in Table 6; instrument parameters are shown in Table 7.

[10] = 40° C./60%-RH and 25° C./75%-RH, after 30 days
[11] = listed as Free base of compound shown in formula I

T1 sequence (P23458 866-1154 limits assumed): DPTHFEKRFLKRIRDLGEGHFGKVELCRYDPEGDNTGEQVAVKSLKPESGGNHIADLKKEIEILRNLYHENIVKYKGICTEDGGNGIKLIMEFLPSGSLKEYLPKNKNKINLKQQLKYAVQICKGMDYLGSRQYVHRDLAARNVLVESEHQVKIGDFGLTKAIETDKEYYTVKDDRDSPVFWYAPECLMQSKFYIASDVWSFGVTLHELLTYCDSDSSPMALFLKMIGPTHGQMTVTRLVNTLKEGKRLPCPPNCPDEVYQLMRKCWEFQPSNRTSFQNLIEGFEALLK

With O=C(Nc1cn2c(-c3ccc(CN4CCS(=O)(=O)CC4)cc3F)cccc2n1)C1CC1 [Crystal form A] the IC50 [1] was 145 nM, the IC50 [2] was 462 nM and the “Crystal form of the solid after stirring in saturated solution (XRPD)” value (“Crystal form of the solid after stirring” below) [3] was “still crystal form A”. For the same compound, the IC50 [4] was 5520 nM, the Hygroscopic weight gain [5] was 2.4% and the Solubility in ethanol [6] was “Soluble”. The Solubility in methanol [6] was “Very soluble”, the “Solubility in simulated gastric juice” value [6] was “Sparingly soluble” and the Solubility in water [6] was “Soluble”. For the same compound, the IC50 [7] was 653 nM, the “Change in XRPD compared with initial crystal form” value [8, 10] was “no significant change” and the “Change in appearance compared with initial crystal form” value [8, 10] was “no significant change”. For the same compound, the “Content of compound shown in formula I” value ([8]; initial) was 99.901%, the “Content of compound shown in formula I” value ([8]; placed at 25° C./75%-RH for 30 days) was 99.899% and the “Content of compound shown in formula I” value ([8]; placed at 40° C./75%-RH for 30 days) was 99.905%. It also gave a Cmax [9] of 456 ng/mL and an AUClast ([9]; up to 24 hours) of 1390 ng·h/mL.
O=C(Nc1cn2c(-c3ccc(CN4CCS(=O)(=O)CC4)cc3F)cccc2n1)C1CC1 [Crystal form C] showed a Hygroscopic weight gain [5] of 6.1%.
For O=C(Nc1cn2c(-c3ccc(CN4CCS(=O)(=O)CC4)cc3F)cccc2n1)C1CC1 [Crystal form D], the Hygroscopic weight gain [5] was 8.1%.
For O=C(Nc1cn2c(-c3ccc(CN4CCS(=O)(=O)CC4)cc3F)cccc2n1)C1CC1 [Crystal form E], the “Crystal form of the solid after stirring” value [3] was “transformed into crystal form A” and the Hygroscopic weight gain [5] was 5.3%.
With O=C(Nc1cn2c(-c3ccc(CN4CCS(=O)(=O)CC4)cc3F)cccc2n1)C1CC1 [Crystal form F] the “Crystal form of the solid after stirring” value [3] was “transformed into crystal form A” and the Hygroscopic weight gain [5] was 4.9%.
For O=C(Nc1cn2c(-c3ccc(CN4CCS(=O)(=O)CC4)cc3F)cccc2n1)C1CC1 [Free base], the Solubility in ethanol [6, 11] was “Slightly soluble”, the Solubility in methanol [6, 11] was “Slightly soluble” and the “Solubility in simulated gastric juice” value [6, 11] was “Insoluble”. The Solubility in water [6, 11] was “Very slightly soluble”, the Cmax ([9]; female, SD, rat, po, 3 mg/kg, read-out: Cmax) was 352 ng/mL and the AUC(0-t) ([9]; female, SD, rat, po, 3 mg/kg, up to 24 hours) was 987 ng·h/mL.
